In ChEMBL document CHEMBL1136702, “Design and synthesis of S-(-)-2-[[4-(napht-1-yl)piperazin-1-yl]methyl]-1,4-dioxoperhydropyrrolo[1,2-a]pyrazine (CSP-2503) using computational simulation. A 5-HT1A receptor agonist” (Bioorg Med Chem Lett, 2003):

Legend:
[1] = biological target: T1, 5-hydroxytryptamine receptor 1A (Rattus norvegicus, UniProt P19327); experiment: Binding affinity towards 5-HT 1A receptor in rat cerebral cortex membranes using [3H]8-OH-DPAT as radioligand; assay type: cell membranes, Membrane
T1 sequence (P19327 whole entry): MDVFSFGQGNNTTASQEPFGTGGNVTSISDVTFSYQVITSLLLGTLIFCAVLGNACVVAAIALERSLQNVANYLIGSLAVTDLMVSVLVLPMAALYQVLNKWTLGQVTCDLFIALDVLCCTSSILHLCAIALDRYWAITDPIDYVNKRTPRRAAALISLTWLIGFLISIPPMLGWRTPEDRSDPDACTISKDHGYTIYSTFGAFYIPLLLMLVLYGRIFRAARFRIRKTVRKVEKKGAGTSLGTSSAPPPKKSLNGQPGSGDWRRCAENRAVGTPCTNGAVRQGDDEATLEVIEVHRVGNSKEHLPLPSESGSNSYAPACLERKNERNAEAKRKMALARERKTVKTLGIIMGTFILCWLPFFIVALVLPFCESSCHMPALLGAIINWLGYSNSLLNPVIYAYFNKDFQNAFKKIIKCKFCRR

[2] = biological target: T2, Adrenergic receptor alpha-1 (Rattus norvegicus, UniProt P15823+P23944+P43140); experiment: Binding affinity towards Alpha-1 adrenergic receptor in rat cerebral cortex membranes using [3H]prazosin as radioligand; assay type: cell membranes, Membrane
T2 sequence (P15823 whole entry): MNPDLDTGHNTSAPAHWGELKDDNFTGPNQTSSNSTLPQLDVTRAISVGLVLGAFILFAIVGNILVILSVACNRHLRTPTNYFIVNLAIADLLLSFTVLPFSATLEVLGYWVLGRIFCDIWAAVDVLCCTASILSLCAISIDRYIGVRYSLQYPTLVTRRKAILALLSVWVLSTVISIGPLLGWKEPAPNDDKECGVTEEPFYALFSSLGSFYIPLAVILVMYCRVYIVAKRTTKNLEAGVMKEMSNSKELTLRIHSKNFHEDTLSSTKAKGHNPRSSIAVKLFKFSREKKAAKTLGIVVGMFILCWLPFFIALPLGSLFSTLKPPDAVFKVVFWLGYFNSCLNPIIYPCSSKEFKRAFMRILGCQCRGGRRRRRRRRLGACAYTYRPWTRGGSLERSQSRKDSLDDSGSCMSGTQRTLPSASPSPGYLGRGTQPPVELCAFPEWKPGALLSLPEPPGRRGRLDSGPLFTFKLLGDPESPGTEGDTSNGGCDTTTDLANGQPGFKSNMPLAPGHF
T2 sequence (P23944 whole entry): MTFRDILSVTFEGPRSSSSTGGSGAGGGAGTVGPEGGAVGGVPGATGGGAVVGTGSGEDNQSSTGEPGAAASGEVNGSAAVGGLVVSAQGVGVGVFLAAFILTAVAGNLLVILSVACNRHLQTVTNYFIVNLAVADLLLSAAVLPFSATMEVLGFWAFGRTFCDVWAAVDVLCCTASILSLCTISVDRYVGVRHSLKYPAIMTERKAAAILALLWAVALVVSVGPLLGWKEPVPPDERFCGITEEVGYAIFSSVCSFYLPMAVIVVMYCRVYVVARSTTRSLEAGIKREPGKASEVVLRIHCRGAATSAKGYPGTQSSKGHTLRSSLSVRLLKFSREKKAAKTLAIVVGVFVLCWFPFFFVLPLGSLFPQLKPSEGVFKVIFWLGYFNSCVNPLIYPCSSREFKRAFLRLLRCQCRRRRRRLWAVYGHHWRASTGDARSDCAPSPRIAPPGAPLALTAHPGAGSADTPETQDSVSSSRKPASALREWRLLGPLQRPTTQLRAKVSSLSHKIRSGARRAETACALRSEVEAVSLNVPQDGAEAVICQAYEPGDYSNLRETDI
T2 sequence (P43140 whole entry): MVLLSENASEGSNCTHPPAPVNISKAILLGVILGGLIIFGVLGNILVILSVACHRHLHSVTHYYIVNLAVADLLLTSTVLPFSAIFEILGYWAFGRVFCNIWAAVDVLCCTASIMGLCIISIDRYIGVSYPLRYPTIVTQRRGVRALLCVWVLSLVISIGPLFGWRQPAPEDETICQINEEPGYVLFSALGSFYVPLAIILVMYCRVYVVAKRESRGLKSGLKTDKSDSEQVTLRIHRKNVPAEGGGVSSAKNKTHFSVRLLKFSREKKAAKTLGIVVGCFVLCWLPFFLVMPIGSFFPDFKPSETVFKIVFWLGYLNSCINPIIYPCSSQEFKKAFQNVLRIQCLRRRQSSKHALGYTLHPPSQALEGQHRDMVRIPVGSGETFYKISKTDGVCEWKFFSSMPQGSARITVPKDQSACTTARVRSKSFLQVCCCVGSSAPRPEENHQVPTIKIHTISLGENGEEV

[3] = biological target: Sodium-dependent serotonin transporter (Rattus norvegicus, UniProt P31652); experiment: Binding affinity towards 5-HT transporter in rat cerebral cortex membranes using [3H]paroxetine as radioligand; assay type: cell membranes, Membrane
[4] = biological target: 5-hydroxytryptamine receptor 2A (Rattus norvegicus, UniProt P14842); experiment: Binding affinity towards 5-HT 2A receptor in rat cerebral frontal cortex membranes using [3H]ketanserin as radioligand; assay type: tissue-based, Membrane
[5] = biological target: 5-hydroxytryptamine receptor 7 (Rattus norvegicus, UniProt P32305); experiment: Binding affinity towards 5-HT 7 receptor in rat hypothalamus membranes using [3H]5-CT as radioligand; assay type: cell membranes, Membrane
[6] = biological target: GABA-A receptor; anion channel; experiment: Displacement of [3H]flunitrazepam from GABA-A benzodiazepine receptor of rat cerebral cortex membranes; assay type: cell membranes, Membrane
[7] = biological target: 5-hydroxytryptamine receptor 4 (Rattus norvegicus, UniProt Q62758); experiment: Binding affinity towards 5-HT 4 receptor in rat striatum membranes using [3H]GR-113808 as radioligand; assay type: cell membranes, Membrane
D(2) dopamine receptor = D(2) dopamine receptor (Rattus norvegicus, UniProt P61169); experiment: Binding affinity towards dopamine D2 receptor in rat striatum membranes using [3H]raclopride as radioligand; assay type: cell membranes, Membrane
D(2) dopamine receptor, sequence (P61169 whole entry): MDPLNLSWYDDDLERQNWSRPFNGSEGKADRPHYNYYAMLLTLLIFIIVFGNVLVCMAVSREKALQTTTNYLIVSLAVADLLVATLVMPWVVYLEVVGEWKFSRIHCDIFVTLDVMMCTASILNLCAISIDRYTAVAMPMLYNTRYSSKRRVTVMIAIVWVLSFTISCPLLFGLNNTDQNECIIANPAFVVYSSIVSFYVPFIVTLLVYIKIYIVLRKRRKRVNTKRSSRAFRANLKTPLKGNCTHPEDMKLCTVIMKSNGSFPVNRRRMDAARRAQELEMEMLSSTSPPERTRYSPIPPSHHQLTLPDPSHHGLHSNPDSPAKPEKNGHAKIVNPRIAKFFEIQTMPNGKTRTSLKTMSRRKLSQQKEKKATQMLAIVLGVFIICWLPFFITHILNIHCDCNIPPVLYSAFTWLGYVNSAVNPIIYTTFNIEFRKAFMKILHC

5-hydroxytryptamine receptor 2A, sequence (P14842 whole entry): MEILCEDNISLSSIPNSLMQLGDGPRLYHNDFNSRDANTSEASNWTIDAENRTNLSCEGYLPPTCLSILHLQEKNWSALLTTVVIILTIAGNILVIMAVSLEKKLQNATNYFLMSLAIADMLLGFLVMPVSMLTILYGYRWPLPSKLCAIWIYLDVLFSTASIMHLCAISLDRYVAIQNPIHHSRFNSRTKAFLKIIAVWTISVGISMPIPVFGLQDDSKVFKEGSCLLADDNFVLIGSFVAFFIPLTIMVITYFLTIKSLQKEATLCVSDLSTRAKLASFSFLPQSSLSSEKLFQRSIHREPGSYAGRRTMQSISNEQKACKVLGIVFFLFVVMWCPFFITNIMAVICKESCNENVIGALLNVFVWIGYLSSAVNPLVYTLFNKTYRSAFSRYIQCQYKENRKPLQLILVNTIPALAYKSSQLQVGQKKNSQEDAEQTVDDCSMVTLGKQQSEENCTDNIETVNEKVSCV
Sodium-dependent serotonin transporter, sequence (P31652 whole entry): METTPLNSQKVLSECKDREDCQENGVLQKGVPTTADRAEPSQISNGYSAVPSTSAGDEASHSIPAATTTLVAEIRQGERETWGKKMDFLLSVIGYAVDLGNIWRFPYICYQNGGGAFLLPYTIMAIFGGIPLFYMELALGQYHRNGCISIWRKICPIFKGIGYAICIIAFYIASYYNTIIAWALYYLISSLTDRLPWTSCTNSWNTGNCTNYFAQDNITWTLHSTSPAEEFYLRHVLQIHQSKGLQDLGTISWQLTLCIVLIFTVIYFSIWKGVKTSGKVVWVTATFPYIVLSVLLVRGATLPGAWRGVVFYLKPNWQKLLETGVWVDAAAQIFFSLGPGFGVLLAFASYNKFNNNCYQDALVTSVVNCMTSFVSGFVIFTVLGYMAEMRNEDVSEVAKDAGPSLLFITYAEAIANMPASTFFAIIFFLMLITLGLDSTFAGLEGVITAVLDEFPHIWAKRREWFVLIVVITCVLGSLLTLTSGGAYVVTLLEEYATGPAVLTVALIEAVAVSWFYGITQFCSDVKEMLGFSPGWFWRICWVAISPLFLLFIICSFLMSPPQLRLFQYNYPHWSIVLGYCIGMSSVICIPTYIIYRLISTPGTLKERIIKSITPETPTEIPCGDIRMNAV
5-hydroxytryptamine receptor 7, sequence (P32305 whole entry): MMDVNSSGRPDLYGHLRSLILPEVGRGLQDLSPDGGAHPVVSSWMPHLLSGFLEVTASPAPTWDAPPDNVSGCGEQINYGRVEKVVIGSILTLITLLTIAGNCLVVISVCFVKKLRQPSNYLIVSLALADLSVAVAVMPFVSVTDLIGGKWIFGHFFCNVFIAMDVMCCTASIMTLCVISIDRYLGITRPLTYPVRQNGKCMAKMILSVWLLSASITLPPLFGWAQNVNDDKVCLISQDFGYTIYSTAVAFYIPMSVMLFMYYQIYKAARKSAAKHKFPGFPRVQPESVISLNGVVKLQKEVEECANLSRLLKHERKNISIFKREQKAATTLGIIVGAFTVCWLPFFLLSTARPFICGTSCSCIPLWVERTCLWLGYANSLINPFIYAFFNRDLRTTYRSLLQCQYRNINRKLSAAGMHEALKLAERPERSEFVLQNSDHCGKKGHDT
5-hydroxytryptamine receptor 4, sequence (Q62758 whole entry): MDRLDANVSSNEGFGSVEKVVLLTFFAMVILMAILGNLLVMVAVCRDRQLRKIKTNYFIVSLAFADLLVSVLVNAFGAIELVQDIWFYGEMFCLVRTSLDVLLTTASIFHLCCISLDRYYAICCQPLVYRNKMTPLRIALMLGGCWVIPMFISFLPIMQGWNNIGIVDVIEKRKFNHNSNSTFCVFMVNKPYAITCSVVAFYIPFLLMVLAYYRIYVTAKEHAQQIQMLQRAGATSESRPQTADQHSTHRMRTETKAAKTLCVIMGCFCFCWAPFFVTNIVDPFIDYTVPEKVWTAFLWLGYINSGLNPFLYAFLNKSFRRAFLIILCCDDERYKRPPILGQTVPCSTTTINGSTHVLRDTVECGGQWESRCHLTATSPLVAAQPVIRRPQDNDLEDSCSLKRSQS

SMILES | Ki [1] | Ki [2] | further results
O=C1C2CCCN2C(=O)N1CN1CCN(c2cccc3ccccc23)CC1 (configuration not stated) | 10.4 nM | > 1000 nM | –
O=C1C2CCCCN2C(=O)N1CN1CCN(c2cccc3c2COCCO3)CC1 (configuration not stated) | 6.1 nM | > 1000 nM | –
O=C1C2CCCCN2C(=O)N1CN1CCN(c2cccc3ccccc23)CC1 (configuration not stated) | 5.6 nM | > 1000 nM | –
O=C1C2CCCN2C(=O)N1CN1CCN(c2cccc3[nH]cnc23)CC1 (configuration not stated) | 4.1 nM | 10000 nM | –

More lines, in order of falling Ki [1], values ahead:

Ki [1] | Ki [2] | SMILES | further results
12.3 nM | > 1000 nM | O=C1C2CCCN2C(=O)CN1CN1CCN(c2cccc3c2COCCO3)CC1 (configuration not stated) | –
9.3 nM | > 1000 nM | O=C1C2CCCCN2C(=O)N1CN1CCN(c2cccc3c2OCCO3)CC1 (configuration not stated) | –
4.1 nM | > 1000 nM | O=C1C2CCCN2C(=O)CN1CN1CCN(c2cccc3ccccc23)CC1 (configuration not stated) | Ki [3]: 976 nM; Ki [4]: 13.5 nM; Ki [5]: 101 nM; Ki [6]: > 10000 nM; Ki [7]: > 10000 nM; Ki (D(2) dopamine receptor): 192 nM
2.4 nM | 64.9 nM | O=C1C2CCCN2C(=O)N1CCCCN1CCN(c2cccc3ccccc23)CC1 (configuration not stated) | –
